From US10479795B2 (Incyte Corporation, priority 2016, dated 2019) come the findings set out here.

Each structure is given as a SMILES string. pIC50: −log10 of the molar value. Structures can show the parent of a compound that is named as a salt.

The target in assay [1] is PI3Kγ (p110γ) Recombinant Human Protein (Homo sapiens (Human), UniProt P48736). Briefly: PI3K-γ Scintillation Proximity Assay. The format is biochemical. As to conditions: read-out: PI3Kγ IC50. How it is done:
[γ-^33P]ATP (10 mCi/mL) and Wheat Germ Agglutinin (WGA) YSi SPA Scintillation Beads was purchased from Perkin-Elmer (Waltham, Mass.). […] PI3Kγ (p110γ) Recombinant Human Protein was purchased from Life technology (Grand Island, N.Y.). ATP, MgCl2, DTT, EDTA, MOPS and CHAPS were purchased from Sigma-Aldrich (St. Louis, Mo.).
The kinase reaction was conducted in polystyrene 384-well Greiner Bio-one white plate from Thermo Fisher Scientific in a final volume of 25 μL. Inhibitors were first diluted serially in DMSO and added to the plate wells before the addition of other reaction components. The final concentration of DMSO in the assay was 2%. The PI3Kγ assay was carried out at room temperature in 20 mM MOPS, pH 6.7, 10 mM MgCl2, 5 mM DTT and CHAPS 0.03%. Reactions were initiated by the addition of ATP, the final reaction mixture consisted of 20 μM PIP2, 2 μM ATP, 0.5 μCi [γ-^33P] […] The final concentration of SPA beads is 1.0 mg/mL. After the plate sealing, plates were shaken overnight at room temperature and centrifuged at 1500 rpm for 10 min, the radioactivity of the product was determined by scintillation counting on Topcount (Perkin-Elmer). IC50 determination was performed by fitting the curve of percent of the solvent control activity versus the log of the inhibitor concentration using the GraphPad Prism 6.0 software.
Background: In a scintillation proximity assay essentially only radioactivity close to the scintillant gives light.

The target of assay [2] is PI3Kδ (p110δ/p85α) Recombinant Human Protein (Homo sapiens (Human), UniProt O00329). The experiment in a line: PI3Kδ Scintillation Proximity Assay. The format is biochemical. From the text: Example C. PI3Kδ Scintillation Proximity Assay
Chain of PI3Kδ (p110δ/p85α) Recombinant Human Protein (O00329 whole entry): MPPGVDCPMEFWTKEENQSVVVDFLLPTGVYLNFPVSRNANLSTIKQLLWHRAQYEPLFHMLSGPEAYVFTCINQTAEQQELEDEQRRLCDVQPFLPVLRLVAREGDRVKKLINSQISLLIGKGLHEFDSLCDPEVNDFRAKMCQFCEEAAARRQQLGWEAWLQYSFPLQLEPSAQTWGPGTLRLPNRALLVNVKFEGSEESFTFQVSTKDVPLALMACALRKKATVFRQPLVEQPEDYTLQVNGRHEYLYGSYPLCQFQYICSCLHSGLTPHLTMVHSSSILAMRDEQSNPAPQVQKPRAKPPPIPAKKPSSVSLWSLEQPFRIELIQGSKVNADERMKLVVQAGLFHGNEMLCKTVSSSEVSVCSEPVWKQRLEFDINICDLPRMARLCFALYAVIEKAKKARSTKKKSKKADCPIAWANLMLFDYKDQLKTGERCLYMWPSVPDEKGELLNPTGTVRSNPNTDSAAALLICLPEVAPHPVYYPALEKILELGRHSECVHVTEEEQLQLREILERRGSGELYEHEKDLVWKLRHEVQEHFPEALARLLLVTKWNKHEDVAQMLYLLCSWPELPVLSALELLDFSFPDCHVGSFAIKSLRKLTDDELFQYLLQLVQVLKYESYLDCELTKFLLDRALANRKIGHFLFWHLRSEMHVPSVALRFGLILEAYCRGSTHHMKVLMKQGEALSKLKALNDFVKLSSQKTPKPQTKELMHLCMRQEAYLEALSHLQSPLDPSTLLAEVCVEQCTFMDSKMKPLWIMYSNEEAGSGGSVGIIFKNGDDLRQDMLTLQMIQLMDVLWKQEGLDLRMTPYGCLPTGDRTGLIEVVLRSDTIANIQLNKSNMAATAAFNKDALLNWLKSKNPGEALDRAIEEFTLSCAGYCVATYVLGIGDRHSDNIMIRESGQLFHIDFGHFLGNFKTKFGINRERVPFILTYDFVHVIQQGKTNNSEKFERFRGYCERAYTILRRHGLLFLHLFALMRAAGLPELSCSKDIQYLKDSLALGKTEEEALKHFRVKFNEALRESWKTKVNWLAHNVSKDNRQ
Chain of PI3Kδ (p110δ/p85α) Recombinant Human Protein (P27986 whole entry partner): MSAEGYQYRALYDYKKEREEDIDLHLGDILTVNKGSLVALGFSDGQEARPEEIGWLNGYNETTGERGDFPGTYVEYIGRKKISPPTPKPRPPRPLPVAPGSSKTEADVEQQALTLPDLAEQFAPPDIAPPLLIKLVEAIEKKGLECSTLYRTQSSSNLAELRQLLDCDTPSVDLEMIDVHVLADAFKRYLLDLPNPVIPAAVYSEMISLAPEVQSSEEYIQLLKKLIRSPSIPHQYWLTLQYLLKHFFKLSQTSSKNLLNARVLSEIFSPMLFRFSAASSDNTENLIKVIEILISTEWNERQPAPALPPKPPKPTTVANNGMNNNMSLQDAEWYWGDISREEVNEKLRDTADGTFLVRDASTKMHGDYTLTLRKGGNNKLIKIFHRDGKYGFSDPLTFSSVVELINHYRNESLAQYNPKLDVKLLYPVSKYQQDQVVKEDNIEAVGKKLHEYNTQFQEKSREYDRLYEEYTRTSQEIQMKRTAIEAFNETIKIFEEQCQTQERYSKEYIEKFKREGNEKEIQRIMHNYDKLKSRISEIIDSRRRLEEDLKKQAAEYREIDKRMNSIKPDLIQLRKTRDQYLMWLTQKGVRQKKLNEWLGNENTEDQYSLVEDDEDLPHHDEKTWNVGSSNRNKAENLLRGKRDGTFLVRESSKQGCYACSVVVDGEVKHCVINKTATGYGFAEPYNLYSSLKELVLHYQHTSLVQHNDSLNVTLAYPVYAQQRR
[γ-^33P]ATP (10 mCi/mL) and Wheat Germ Agglutinin (WGA) YSi SPA Scintillation Beads was purchased from Perkin-Elmer (Waltham, Mass.). Lipid kinase substrate, D-myo-Phosphatidylinositol 4,5-bisphosphate (PtdIns(4,5)P2)D (+)-sn-1,2-di-O-octanoylglyceryl, 3-O-phospho linked (PIP2), CAS 204858-53-7, was purchased from Echelon Biosciences (Salt Lake City, Utah). PI3Kδ (p110δ/p85α) Recombinant Human Protein was purchased from Eurofins (St Charles, Mo.). ATP, MgCl2, DTT, EDTA, MOPS and CHAPS were purchased from Sigma-Aldrich (St. Louis, Mo.).
The kinase reaction was conducted in polystyrene 384-well Greiner Bio-one white plate from Thermo Fisher Scientific in a final volume of 25 μL. Inhibitors were first diluted serially in DMSO and added to the plate wells before the addition of other reaction components. The final concentration of DMSO in the assay was 2%. The PI3Kδ assay was carried out at room temperature in 20 mM MOPS, pH 6.7, 10 mM MgCl2, 5 mM DTT and CHAPS 0.03%. Reactions were initiated by the addition of ATP, the final reaction mixture consisted of 20 μM PIP2, 2 μM ATP, 0.5 μCi [γ-^33P] ATP, 3.4 nM PI3Kδ. Reactions were incubated for 120 min and terminated by the addition of 40 μL SPA beads suspended in quench buffer: 163 mM potassium phosphate pH 7.8, 20% glycerol, 25 mM EDTA. The final concentration of SPA beads is 1.0 mg/mL. After the plate sealing, plates were shaken overnight at room temperature and centrifuged at 1500 rpm for 10 min, the radioactivity of the product was determined by scintillation counting on Topcount (Perkin-Elmer). IC50 determination was performed by fitting the curve of percent of the solvent control activity versus the log of the inhibitor concentration using the GraphPad Prism 6.0 software.

Chain of PI3Kγ (p110γ) Recombinant Human Protein (P48736 whole entry): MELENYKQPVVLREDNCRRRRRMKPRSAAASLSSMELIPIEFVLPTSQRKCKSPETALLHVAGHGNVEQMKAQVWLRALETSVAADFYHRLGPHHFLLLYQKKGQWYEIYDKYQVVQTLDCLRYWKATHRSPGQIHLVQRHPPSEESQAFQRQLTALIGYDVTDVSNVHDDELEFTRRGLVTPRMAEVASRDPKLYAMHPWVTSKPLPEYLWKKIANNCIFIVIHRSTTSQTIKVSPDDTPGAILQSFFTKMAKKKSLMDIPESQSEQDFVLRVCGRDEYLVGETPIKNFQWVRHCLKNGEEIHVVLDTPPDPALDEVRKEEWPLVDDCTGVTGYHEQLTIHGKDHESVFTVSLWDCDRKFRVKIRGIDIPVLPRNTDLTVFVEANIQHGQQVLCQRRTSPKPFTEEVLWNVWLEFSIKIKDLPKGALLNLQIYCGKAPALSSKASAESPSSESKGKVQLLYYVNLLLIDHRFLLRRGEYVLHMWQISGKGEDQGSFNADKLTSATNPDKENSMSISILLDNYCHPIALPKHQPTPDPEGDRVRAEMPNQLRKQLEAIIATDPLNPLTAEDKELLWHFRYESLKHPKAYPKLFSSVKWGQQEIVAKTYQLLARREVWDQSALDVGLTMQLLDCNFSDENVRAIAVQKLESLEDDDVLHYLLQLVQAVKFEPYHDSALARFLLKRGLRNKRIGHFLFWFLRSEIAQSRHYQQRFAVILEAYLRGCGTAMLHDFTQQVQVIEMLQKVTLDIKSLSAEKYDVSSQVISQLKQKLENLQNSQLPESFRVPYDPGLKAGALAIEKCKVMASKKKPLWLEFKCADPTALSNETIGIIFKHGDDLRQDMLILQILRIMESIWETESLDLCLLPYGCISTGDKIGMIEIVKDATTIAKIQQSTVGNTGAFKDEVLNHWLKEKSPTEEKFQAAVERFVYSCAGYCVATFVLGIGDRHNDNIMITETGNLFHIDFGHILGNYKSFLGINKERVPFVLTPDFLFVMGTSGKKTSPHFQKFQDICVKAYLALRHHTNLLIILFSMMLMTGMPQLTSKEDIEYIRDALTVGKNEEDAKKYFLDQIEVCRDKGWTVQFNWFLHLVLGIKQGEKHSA

Usually pIC50 stands for −log10 of the IC50, conventionally taken in molar units. With `Cc1ccc(S(=O)(=O)N2CCC(N(C)C)C2)cc1-c1cnc2c(N)ncnn12` (centres unmarked) [Example 204, 7-(5-((3-(Dimethylamino)pyrrolidin-1-yl)sulfonyl)-2-methylphenyl)imidazo[2,1-f][1,2,4]triazin-4-amine], the pIC50 was 6.30 to 7.00 in assay [1] and 5.70 to 6.30 in assay [2]. In the same order, the values of `Cc1ccc(S(=O)(=O)N2CC(=O)N3CCCC[C@@H]3C2)cc1-c1cnc2c(N)ncnn12` [Example 172, (R)-2-((3-(4-aminoimidazo[2,1-f][1,2,4]triazin-7-yl)-4-methylphenyl)sulfonyl)octahydro-4H-pyrido[1,2-a]pyrazin-4-one] are 6.30 to 7.00 and 5.70 to 6.30. On the same counts, the results for `Cc1ccc(S(=O)(=O)N2CCC(O)C3(CC3)C2)cc1-c1cnc2c(N)ncnn12` (centres unmarked) [Example 119, 5-{[3-(4-aminoimidazo[2,1-f][1,2,4]triazin-7-yl)-4-methylphenyl]sulfonyl}-5-azaspiro[2.5]octan-8-ol] are 6.30 to 7.00 and under 5.70. On the same counts, the results for `Cc1ccc(S(C)(=O)=O)cc1-c1cnc2c(N)nc(C(=O)Nc3ccc(N4CCN(C)CC4)cn3)cn12` [Example 455, 8-amino-3-(2-methyl-5-(methylsulfonyl)phenyl)-N-(5-(4-methylpiperazin-1-yl)pyridin-2-yl)imidazo[1,2-a]pyrazine-6-carboxamide trifluoroacetate salt] are 5.70 to 6.30 and 5.70 to 6.30. As to `Cc1ccc(S(=O)(=O)N2CCCC2c2c(C)noc2C)cc1-c1cnc2c(N)ncnn12` (centres unmarked) [Example 168, 7-(5-((2-(3,5-dimethylisoxazol-4-yl)pyrrolidin-1-yl)sulfonyl)-2-methylphenyl)imidazo[2,1-f][1,2,4]triazin-4-amine], the pIC50 in assay [1] was over 7.00; in assay [2] it was 5.70 to 6.30. In the same order, the values of `Cc1ccc(S(=O)(=O)N2CCCC23CCOCC3)cc1-c1cnc2c(N)ncnn12` [Example 209, 7-(5-((8-Oxa-1-azaspiro[4.5]decan-1-yl)sulfonyl)-2-methylphenyl)imidazo[2,1-f][1,2,4]triazin-4-amine] are over 7.00 and 5.70 to 6.30. Take `Nc1ncnn2c(-c3ccc(F)c(S(=O)(=O)NC45CCC(CO)(C4)C5)c3)cnc12` [Example 366, 5-(4-Aminoimidazo[1,2-f][1,2,4]triazin-7-yl)-2-fluoro-N-(4-(hydroxymethyl)bicyclo[2.1.1]hexan-1-yl)benzenesulfonamide trifluoroacetate salt]: the pIC50 in assay [1] was over 7.00; in assay [2], 6.30 to 7.00. In the case of `COc1ccc(-c2cnc3c(N)nccn23)cc1S(=O)(=O)N[C@H]1CC[C@H](O)CC1` [Example 43, 5-(8-Aminoimidazo[1,2-a]pyrazin-3-yl)-N-(trans-4-hydroxycyclohexyl)-2-methoxybenzenesulfonamide], the pIC50 in assay [1] was 6.30 to 7.00; in assay [2], over 7.00. On to `Cc1ccc(S(C)(=O)=O)cc1-c1cnc2c(N)nc(C(=O)Nc3cc(-c4ccco4)[nH]n3)cn12` [Example 454, 8-amino-N-(5-(furan-2-yl)-1H-pyrazol-3-yl)-3-(2-methyl-5-(methylsulfonyl)phenyl)imidazo[1,2-a]pyrazine-6-carboxamide trifluoroacetate salt], for which the pIC50 in assay [1] is 6.30 to 7.00; in assay [2], 5.70 to 6.30. On the same counts, the results for `Cc1ccc(S(=O)(=O)N2CCCC(CNC(=O)OC(C)(C)C)C2)cc1-c1cnc2c(N)nc(C(F)(F)F)cn12` (centres unmarked) [Example 512, tert-Butyl ((1-((3-(8-amino-6-(trifluoromethyl)imidazo[1,2-a]pyrazin-3-yl)-4-methylphenyl)sulfonyl)piperidin-3-yl)methyl)carbamate] are over 7.00 and under 5.70. Take `Cc1ccc(S(=O)(=O)N2[C@@H]3CC[C@H]2CN(C)C3)cc1-c1cnc2c(N)ncnn12` [Example 170, 7-(2-methyl-5-(((1R,5S)-3-methyl-3,8-diazabicyclo[3.2.1]octan-8-yl)sulfonyl)phenyl)imidazo[2,1-f][1,2,4]triazin-4-amine]: the pIC50 is over 7.00 in assay [1] and 5.70 to 6.30 in assay [2]. As to `CO[C@@H]1CN(S(=O)(=O)c2ccc(C)c(-c3cnc4c(N)ncnn34)c2)C[C@H]1F` [Example 151, 7-(5-(((3R,4R)-3-fluoro-4-methoxypyrrolidin-1-yl)sulfonyl)-2-methylphenyl)imidazo[2,1-f][1,2,4]triazin-4-amine], the pIC50 in assay [1] is over 7.00; in assay [2] it was 6.30 to 7.00. On to `Cc1ccc(S(=O)(=O)N2CCN(C)C(=O)C2)cc1-c1cnc2c(N)nc(C(F)(F)F)cn12` [Example 298, 4-((3-(8-amino-6-(trifluoromethyl)imidazo[1,2-a]pyrazin-3-yl)-4-methylphenyl)sulfonyl)-1-methylpiperazin-2-one], for which the pIC50 in assay [1] was over 7.00; in assay [2], 5.70 to 6.30.

`Cc1ccc(S(=O)(=O)N[C@]2(C)C[C@H](O)C2)cc1-c1cnc2c(N)ncnn12` [Example 191, 3-(4-aminoimidazo[2,1-f][1,2,4]triazin-7-yl)-N-((1s,3s)-3-hydroxy-1-methylcyclobutyl)-4-methylbenzenesulfonamide]: the values for the pIC50 in assay [1] and in assay [2] were over 7.00 and 5.70 to 6.30, respectively. With `CCN1CC2C(O)C1CN2S(=O)(=O)c1ccc(C)c(-c2cnc3c(N)nc(C(F)(F)F)nn23)c1` (centres unmarked) [Example 349, 2-((3-(4-amino-2-(trifluoromethyl)imidazo[2,1-f][1,2,4]triazin-7-yl)-4-methylphenyl)sulfonyl)-5-ethyl-2,5-diazabicyclo[2.2.1]heptan-7-ol], the pIC50 in assay [1] was over 7.00; in assay [2] it was 5.70 to 6.30. For the compound `Cc1ccc(S(=O)(=O)N2CCS(=O)(=O)CC2)cc1-c1cnc2c(N)ncnn12` [Example 161, 4-((3-(4-aminoimidazo[2,1-f][1,2,4]triazin-7-yl)-4-methylphenyl)sulfonyl)thiomorpholine 1,1-dioxide], the results for the pIC50 in assay [1] and in assay [2] were over 7.00 and 6.30 to 7.00, respectively.

Consider `Cc1ccc(S(=O)(=O)N2CCC[C@H]2C(C)(C)O)cc1-c1cnc2c(N)ncnn12` [Example 213, (S)-2-(1-((3-(4-Aminoimidazo[2,1-f][1,2,4]triazin-7-yl)-4-methylphenyl)sulfonyl)pyrroldiin-2-yl)propan-2-ol], for which the pIC50 is over 7.00 in assay [1] and 5.70 to 6.30 in assay [2].

In the case of `CCS(=O)(=O)Nc1cc(-c2cnc3c(N)cc(Cl)cn23)c[nH]c1=O` [Example 6, N-[5-(8-Amino-6-chloroimidazo[1,2-a]pyridin-3-yl)-2-oxo-1,2-dihydropyridin-3-yl]ethanesulfonamide trifluoroacetate], the pIC50 in assay [1] was 5.70 to 6.30; in assay [2] it was under 5.70. In the same order, the values of `Cc1ccc(S(=O)(=O)N2CCC(C)(C#N)C2)cc1-c1cnc2c(N)ncnn12` (centres unmarked) [Example 200, 1-((3-(4-Aminoimidazo[2,1-f][1,2,4]triazin-7-yl)-4-methylphenyl)sulfonyl)-3-methylpyrrolidine-3-carbonitrile] are over 7.00 and 5.70 to 6.30.

In the case of `Cc1ccc(S(=O)(=O)N2CC3(CCN(C)C3=O)C2)cc1-c1cnc2c(N)ncnn12` [Example 195, 2-((3-(4-Aminoimidazo[2,1-f][1,2,4]triazin-7-yl)-4-methylphenyl)sulfonyl)-6-methyl-2,6-diazaspiro[3.4]octan-5-one], the pIC50 in assay [1] was over 7.00; in assay [2] it was 6.30 to 7.00. With `Cc1ccc(S(=O)(=O)NC23CCCC(C(C)O)(C2)C3)cc1-c1cnc2c(N)ncnn12` (centres unmarked) [Example 521, 3-(4-aminoimidazo[2,1-f][1,2,4]triazin-7-yl)-N-(5-(1-hydroxyethyl)bicyclo[3.1. 1]heptan-1-yl)-4-methylbenzenesulfonamide trifluoroacetate], the pIC50 in assay [1] is over 7.00.
